Where two headings read alike, the source gives them in different places. Ends that are not written are not given here. Peptide text beside a SMILES is read from it. * marks the point of attachment. Cholyl = C[C@H](CCC(=O)*)[C@H]1CC[C@H]2[C@@H]3[C@H](O)C[C@@H]4C[C@H](O)CC[C@]4(C)[C@H]3C[C@H](O)[C@]12C
Experiments:
Aβ1-40 [1] = biological target: T1, Aβ1-40 (Homo sapiens, UniProt P05067);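 also: Aβ nucleation assay tracking fiber polymerization from monomer by turbidity (light scattering), shaken continuously in 96-well plates, read every 15 min over 5 h, compared with compound-free control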
Source text: (§1) The nucleation assay is employed to determine the ability of test compounds to alter (e.g. inhibit) the early events in formation of β-AP fibers from monomeric β-AP. […] The time delay before polymerization of β-AP monomer can be quantified as well as the extent of formation of insoluble fiber by light scattering (turbidity). Polymerization reaches equilibrium when the maximum turbidity reaches a plateau. […] The threshold of sensitivity for the measurement of turbidity is in the range of 15-20 μM β-AP. […] This assay can be performed using stirring or shaking to accelerate polymerization, thereby increasing the speed of the assay. Moreover the assay can be adapted to a 96-well plate format to screen multiple compounds.
(§2) HFIP-solubilized peptide is sonicated in a waterbath sonicator for 5 min at highest setting, then evaporated to dryness under a stream of argon. […] Test compounds are dissolved in DMSO at a 100× concentration. […] Ten microliters of the mixture is then added to the bottom of a well of a Corning Costar ultra low binding 96-well plate (Corning Costar, Cambridge Mass.; cat. No. 2500). […] The plate is then returned to the shaker and shaken continuously for 5 hours. Turbidity readings are taken at 15 minute intervals.
(§3) Accordingly a fold increase in lag time of 1.0 indicates no change in lag time, whereas numbers >1.0 indicate an increase in lag time. The "% inhibition of plateau", which is a measure of the ability of the compound to decrease the total amount of aggregation, refers to the reduction of the final turbidity in the presence of the test compound expressed as a percent of the control without the test compound.

Aβ1-40 [2] = biological target: T1, Aβ1-40; assay: biochemical; details: read-out: % Inucl'n (percent reduction in maximum turbidity)
Source text: as §1, §2, §3

[3] = Table VI, unmodified peptides, 100 mole %

T1 sequence (P05067 672-711): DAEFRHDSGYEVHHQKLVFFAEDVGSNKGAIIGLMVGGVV

Compound | % Inhibition of Plateau (Aβ1-40 [1]) | Fold Increase in Lag Time (Aβ1-40 [1]; [3]) | further results
CC(C)C[C@H](NC(=O)OC(C)(C)C)C(=O)N[C@H](C(=O)N[C@@H](Cc1ccccc1)C(=O)N[C@@H](Cc1ccccc1)C(=O)N[C@@H](C)C(=O)O)C(C)C [PPI-435] |  |  | % Inucl'n (percent reduction in maximum turbidity) (Aβ1-40 [1]): -5%; ΔLag (ratio of lag time with test compound to lag time of control) (Aβ1-40 [1]; Table V, 100 mole % inhibitor relative to Aβ1-40): 3.0
CC[C@H](C)[C@H](NC(=O)[C@H](C)NC(=O)CNC(=O)[C@H](CCCCN)NC(=O)[C@H](CC(N)=O)NC(=O)[C@H](CO)NC(=O)[C@H](Cc1ccccc1)NC(=O)[C@H](Cc1ccccc1)NC(=O)[C@@H](NC(=O)[C@H](CC(C)C)NC(=O)[C@H](CCCCN)NC(=O)[C@H](CCC(N)=O)NC(=O)[C@H](Cc1c[nH]cn1)NC(=O)[C@H](Cc1c[nH]cn1)NC(=O)[C@@H](NC(=O)[C@H](CCC(=O)O)NC(=O)[C@H](Cc1ccc(O)cc1)NC(=O)CNC(=O)[C@H](CO)NC(=O)[C@H](CC(=O)O)NC(=O)[C@H](Cc1c[nH]cn1)NC(=O)[C@H](CCCNC(=N)N)NC(=O)[C@H](Cc1ccccc1)NC(=O)[C@H](CCC(=O)O)NC(=O)[C@H](C)NC(=O)[C@@H](N)CC(=O)O)C(C)C)C(C)C)C(=O)N[C@H](C(=O)NCC(=O)N[C@@H](CC(C)C)C(=O)N[C@@H](CCSC)C(=O)N[C@H](C(=O)NCC(=O)NCC(=O)N[C@H](C(=O)N[C@H](C(=O)O)C(C)C)C(C)C)C(C)C)[C@@H](C)CC [PPI-249, Aβ1-20, 26-40 (Δ21-25)] | ~ 0% | 2.37 fold | 
C[C@H](CCC(=O)N[C@@H](Cc1c[nH]cn1)C(=O)N[C@@H](CC(=O)O)C(=O)N[C@@H](CO)C(=O)NCC(=O)N[C@@H](Cc1ccc(O)cc1)C(N)=O)[C@H]1CC[C@H]2[C@@H]3[C@H](O)C[C@@H]4C[C@H](O)CC[C@]4(C)[C@H]3C[C@H](O)[C@]12C [PPI-339] (Cholyl-HDSGY-NH2) | 13% |  | 
CC[C@H](C)[C@H](NC(=O)[C@H](C)NC(=O)CNC(=O)[C@H](CCCCN)NC(=O)[C@H](CC(N)=O)NC(=O)[C@H](CO)NC(=O)CNC(=O)[C@@H](NC(=O)[C@H](CC(=O)O)NC(=O)[C@H](CCC(=O)O)NC(=O)[C@H](C)NC(=O)[C@H](Cc1ccccc1)NC(=O)[C@H](Cc1ccccc1)NC(=O)[C@@H](NC(=O)[C@H](CC(C)C)NC(=O)[C@H](CCCCN)NC(=O)[C@H](Cc1ccc(O)cc1)NC(=O)CNC(=O)[C@H](CO)NC(=O)[C@H](CC(=O)O)NC(=O)[C@H](Cc1c[nH]cn1)NC(=O)[C@H](CCCNC(=N)N)NC(=O)[C@H](Cc1ccccc1)NC(=O)[C@H](CCC(=O)O)NC(=O)[C@H](C)NC(=O)[C@@H](N)CC(=O)O)C(C)C)C(C)C)C(=O)N[C@H](C(=O)NCC(=O)N[C@@H](CC(C)C)C(=O)N[C@@H](CCSC)C(=O)N[C@H](C(=O)NCC(=O)NCC(=O)N[C@H](C(=O)N[C@H](C(=O)O)C(C)C)C(C)C)C(C)C)[C@@H](C)CC [PPI-251, Aβ1-10, 16-40 (Δ11-15)] | ~ 0% | ~ 1.2 fold | 
CC(C)C[C@H](NC(=O)[C@H](CCCCN)NC(=O)[C@H](CCC(N)=O)NC(=O)[C@H](Cc1c[nH]cn1)NC(=O)CC[C@@H](C)[C@H]1CC[C@H]2[C@@H]3[C@H](O)C[C@@H]4C[C@H](O)CC[C@]4(C)[C@H]3C[C@H](O)[C@]12C)C(=O)N[C@H](C(=O)N[C@@H](Cc1ccccc1)C(=O)N[C@@H](Cc1ccccc1)C(N)=O)C(C)C [PPI-315] (Cholyl-HQKLVFF-NH2) |  |  | inhibition at 33 % (Aβ1-40 [2]): 5%
CC(C)C[C@H](NC(=O)[C@H](CCCCN)NC(=O)[C@H](CCC(N)=O)NC(=O)[C@H](Cc1c[nH]cn1)NC(=O)[C@H](Cc1c[nH]cn1)NC(=O)[C@@H](NC(=O)[C@H](CCC(=O)O)NC(=O)[C@H](Cc1ccc(O)cc1)NC(=O)CNC(=O)[C@H](CO)NC(=O)[C@H](CC(=O)O)NC(=O)[C@H](Cc1c[nH]cn1)NC(=O)CC[C@@H](C)[C@H]1CC[C@H]2[C@@H]3[C@H](O)C[C@@H]4C[C@H](O)CC[C@]4(C)[C@H]3C[C@H](O)[C@]12C)C(C)C)C(=O)N[C@H](C(=O)N[C@@H](Cc1ccccc1)C(N)=O)C(C)C [PPI-321] (Cholyl-HDSGYEVHHQKLVF-NH2) |  |  | inhibitory activity on Aβ aggregation (Aβ1-40 [1]): loss of inhibitory activity; Fold Increase in Lag Time (Aβ1-40 [1]; Table III, 33 mole %): 1.4 fold; Fold Increase in Lag Time (Aβ1-40 [1]; Table IV, 100 mole %): 1.2 fold
KLVFFAEDVGSNKGA [PPI-228, Aβ16-30] | 100% | > 4.5 fold | 
CC(C)C[C@H](NC(=O)[C@H](CCCCN)NC(=O)[C@H](CCC(N)=O)NC(=O)[C@H](Cc1c[nH]cn1)NC(=O)[C@H](Cc1c[nH]cn1)NC(=O)[C@@H](NC(=O)CC[C@@H](C)[C@H]1CC[C@H]2[C@@H]3[C@H](O)C[C@@H]4C[C@H](O)CC[C@]4(C)[C@H]3C[C@H](O)[C@]12C)C(C)C)C(=O)N[C@H](C(=O)N[C@@H](Cc1ccccc1)C(=O)N[C@@H](Cc1ccccc1)C(=O)O)C(C)C [PPI-346] (Cholyl-VHHQKLVFF-OH) | ~ 0% |  | 
CC(C)[C@H](NC(=O)[C@H](CCC(=O)O)NC(=O)[C@H](Cc1ccc(O)cc1)NC(=O)CNC(=O)[C@H](CO)NC(=O)[C@H](CC(=O)O)NC(=O)[C@H](Cc1c[nH]cn1)NC(=O)CC[C@@H](C)[C@H]1CC[C@H]2[C@@H]3[C@H](O)C[C@@H]4C[C@H](O)CC[C@]4(C)[C@H]3C[C@H](O)[C@]12C)C(=O)N[C@@H](Cc1c[nH]cn1)C(=O)N[C@@H](Cc1c[nH]cn1)C(N)=O [PPI-331] (Cholyl-HDSGYEVHH-NH2) | 29% |  | 
CC(C)C[C@H](NC(=O)[C@H](CCCCN)NC(=O)[C@H](CCC(N)=O)NC(=O)CC[C@@H](C)[C@H]1CC[C@H]2[C@@H]3[C@H](O)C[C@@H]4C[C@H](O)CC[C@]4(C)[C@H]3C[C@H](O)[C@]12C)C(=O)N[C@H](C(=O)N[C@@H](Cc1ccccc1)C(=O)O)C(C)C [PPI-366] (Cholyl-QKLVF-OH) | ~ 0% |  | 
HDSGYEVHHQKLVFF [PPI-226, Aβ6-20] | 76% | 1.66 fold | 
SNKGAIIGLMVGGVV [PPI-230, Aβ26-40] | ~ 0% | 0.8 fold | 
CC[C@H](C)[C@H](NC(=O)[C@H](C)NC(=O)CNC(=O)[C@H](CCCCN)NC(=O)[C@H](CC(N)=O)NC(=O)[C@H](CO)NC(=O)CNC(=O)[C@@H](NC(=O)[C@H](CC(=O)O)NC(=O)[C@H](CCC(=O)O)NC(=O)[C@H](C)NC(=O)[C@H](CCC(N)=O)NC(=O)[C@H](Cc1c[nH]cn1)NC(=O)[C@H](Cc1c[nH]cn1)NC(=O)[C@@H](NC(=O)[C@H](CCC(=O)O)NC(=O)[C@H](Cc1ccc(O)cc1)NC(=O)CNC(=O)[C@H](CO)NC(=O)[C@H](CC(=O)O)NC(=O)[C@H](Cc1c[nH]cn1)NC(=O)[C@H](CCCNC(=N)N)NC(=O)[C@H](Cc1ccccc1)NC(=O)[C@H](CCC(=O)O)NC(=O)[C@H](C)NC(=O)[C@@H](N)CC(=O)O)C(C)C)C(C)C)C(=O)N[C@H](C(=O)NCC(=O)N[C@@H](CC(C)C)C(=O)N[C@@H](CCSC)C(=O)N[C@H](C(=O)NCC(=O)NCC(=O)N[C@H](C(=O)N[C@H](C(=O)O)C(C)C)C(C)C)C(C)C)[C@@H](C)CC [PPI-250, Aβ1-15, 21-40 (Δ16-20)] | ~ 0% | 1.55 fold | 
AEDVGSNKGAIIGLM [PPI-229, Aβ21-35] | ~ 0% | ~ 1 fold | 
CC(C)C[C@H](NC(=O)CC[C@@H](C)[C@H]1CC[C@H]2[C@@H]3CC[C@@H]4C[C@H](O)CC[C@]4(C)[C@H]3C[C@H](O)[C@]12C)C(=O)N[C@H](C(=O)N[C@@H](Cc1ccccc1)C(=O)N[C@@H](Cc1ccccc1)C(=O)N[C@@H](C)C(=O)O)C(C)C [PPI-424] |  |  | % Inucl'n (percent reduction in maximum turbidity) (Aβ1-40 [1]): -114%
